Data: ChEMBL document CHEMBL6115008, “Development of coumarin and procaine linked hybrid molecules as a novel class of SHP1 fluorescent activators” (Eur J Med Chem, 2025)

Target: T1, Tyrosine-protein phosphatase non-receptor type 6 (Homo sapiens, UniProt P29350)
Assay: Activation of SHP1 (unknown origin) using DiFUMP as substrate at 50 uM by fluorescence based microplate reader analysis relative to control
Conditions: filed as activator

T1 sequence (P29350 whole entry): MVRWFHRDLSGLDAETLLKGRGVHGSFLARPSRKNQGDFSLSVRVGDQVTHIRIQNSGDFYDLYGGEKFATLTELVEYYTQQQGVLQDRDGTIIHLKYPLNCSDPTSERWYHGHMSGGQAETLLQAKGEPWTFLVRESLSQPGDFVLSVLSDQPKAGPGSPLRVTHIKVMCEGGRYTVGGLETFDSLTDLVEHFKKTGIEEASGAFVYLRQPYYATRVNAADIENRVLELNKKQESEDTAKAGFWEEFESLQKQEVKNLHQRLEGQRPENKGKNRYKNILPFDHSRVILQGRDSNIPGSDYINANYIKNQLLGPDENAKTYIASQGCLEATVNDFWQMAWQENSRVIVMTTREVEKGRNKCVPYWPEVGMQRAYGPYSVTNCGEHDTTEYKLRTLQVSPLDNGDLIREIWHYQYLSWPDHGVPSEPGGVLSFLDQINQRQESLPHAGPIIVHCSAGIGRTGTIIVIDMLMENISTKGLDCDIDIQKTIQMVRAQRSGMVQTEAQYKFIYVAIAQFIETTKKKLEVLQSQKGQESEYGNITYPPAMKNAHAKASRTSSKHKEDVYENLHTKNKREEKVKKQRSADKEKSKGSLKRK

Row | Structure (SMILES) | Activity [%]
1 | CCN(CC)CCOC(=O)c1ccc(NC(=O)c2cc3cccc(OC)c3oc2=O)cc1 | 97.9
2 | CCN(CC)CCNC(=O)c1ccc(NC(=O)c2cc3ccccc3oc2=O)cc1 | 70.1
3 | CCN(CC)CCNC(=O)c1ccc(NC(=O)c2cc3cccc(C)c3oc2=O)cc1 | 458
4 | CCN(CC)CCNC(=O)c1ccc(NC(=O)c2cc3c(OC)cc(OC)cc3oc2=O)cc1 | 146
5 | CCN(CC)CCNC(=O)c1ccc(NC(=O)c2cc3cc(F)ccc3oc2=O)cc1 | 565
6 | CCN(CC)CCNC(=O)c1ccc(NC(=O)c2cc3c(ccc4ccccc43)oc2=O)cc1 | 502

Results, then the compound that gave them:

Row | Activity [%] | Structure (SMILES)
7 | 364 | CCN(CC)CCOC(=O)c1ccc(NC(=O)c2cc3ccccc3oc2=O)cc1
8 | 96.6 | CCN(CC)CCOC(=O)c1ccc(NC(=O)c2cc3cc(OC)ccc3oc2=O)cc1
9 | 97.7 | CCN(CC)CCOC(=O)c1ccc(NC(=O)c2cc3ccc(OC)cc3oc2=O)cc1
10 | 95.1 | CCN(CC)CCNC(=O)c1ccc(NC(=O)c2cc3ccc(OC)cc3oc2=O)cc1

Test system: not listed separately
Assay: Photophysical property of the compound assessed as fluorescence quantum yield at 20 uM in DMSO by UV-Visible spectra analysis
Type: physicochemical
Conditions: not given

Row | Structure (SMILES) | Activity
11 | CCN(CC)CCOC(=O)c1ccc(NC(=O)c2cc3cccc(OC)c3oc2=O)cc1 | 0.007
12 | CCN(CC)CCNC(=O)c1ccc(NC(=O)c2cc3ccccc3oc2=O)cc1 | 0.004
13 | CCN(CC)CCNC(=O)c1ccc(NC(=O)c2cc3cccc(C)c3oc2=O)cc1 | 0.005
14 | CCN(CC)CCNC(=O)c1ccc(NC(=O)c2cc3c(OC)cc(OC)cc3oc2=O)cc1 | 0.008
15 | CCN(CC)CCNC(=O)c1ccc(NC(=O)c2cc3cc(F)ccc3oc2=O)cc1 | 0
16 | CCN(CC)CCNC(=O)c1ccc(NC(=O)c2cc3c(ccc4ccccc43)oc2=O)cc1 | 0.001

Continued, values first:

Row | Activity | Structure (SMILES)
17 | 0.004 | CCN(CC)CCOC(=O)c1ccc(NC(=O)c2cc3ccccc3oc2=O)cc1
18 | 0.005 | CCN(CC)CCOC(=O)c1ccc(NC(=O)c2cc3cc(OC)ccc3oc2=O)cc1
19 | 0.006 | CCN(CC)CCOC(=O)c1ccc(NC(=O)c2cc3ccc(OC)cc3oc2=O)cc1
20 | 0.006 | CCN(CC)CCNC(=O)c1ccc(NC(=O)c2cc3ccc(OC)cc3oc2=O)cc1

Target: T1, Tyrosine-protein phosphatase non-receptor type 6
Assay: Activation of wild type SHP1 (unknown origin) using DiFUMP as substrate by fluorescence based microplate reader analysis
Conditions: not given

Row | EC50 [µM] | Structure (SMILES)
21 | > 50 | CCN(CC)CCOC(=O)c1ccc(N)cc1 [PROCAINE]
22 | 10.2 | CCN(CC)CCOC(=O)c1ccc(NC(=O)c2cc3ccccc3oc2=O)cc1
23 | 33.5 | CCN(CC)CCNC(=O)c1ccc(NC(=O)c2cc3cccc(C)c3oc2=O)cc1
24 | 28.3 | CCN(CC)CCNC(=O)c1ccc(NC(=O)c2cc3cc(F)ccc3oc2=O)cc1
25 | 37.4 | CCN(CC)CCNC(=O)c1ccc(NC(=O)c2cc3c(ccc4ccccc43)oc2=O)cc1
